According to patent US8952042B2, “FXR (NR1H4) binding and activity modulating compounds” (Phenex Pharmaceuticals AG, priority 2009, dated 2015):

Key:
[1] = biological target: T1, human FXR alpha ligand binding domain (Homo sapiens, UniProt Q96RI1); test: FRET activity assay (ligand mediated cofactor peptide interaction, LANCE); assay type: biochemical; settings: potency range
T1 construct: made in house; host or cells: E. coli BL21(DE3), vector pDEST15
T1 sequence (Q96RI1 187-472 isoform Q96RI1-2): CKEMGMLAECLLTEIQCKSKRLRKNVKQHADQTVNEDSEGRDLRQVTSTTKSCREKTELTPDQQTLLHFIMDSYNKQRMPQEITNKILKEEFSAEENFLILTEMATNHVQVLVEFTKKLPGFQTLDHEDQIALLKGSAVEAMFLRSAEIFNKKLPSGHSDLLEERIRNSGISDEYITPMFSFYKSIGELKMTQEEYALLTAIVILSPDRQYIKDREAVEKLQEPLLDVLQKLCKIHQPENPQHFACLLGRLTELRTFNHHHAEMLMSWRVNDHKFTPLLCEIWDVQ
Method: Determination of a ligand mediated cofactor peptide interaction to quantify ligand binding to the nuclear receptor FXR was performed as follows: Preparation of human FXR alpha ligand binding domain: The human FXRalpha LBD was expressed in E. coli strain BL21(DE3) as an N-terminally GST tagged fusion protein. The DNA encoding the FXR ligand binding domain was cloned into vector pDEST15 (Invitrogen). Expression was under control of an IPTG inducible T7 promoter. The amino acid boundaries of the ligand binding domain were amino acids 187-472 of Database entry NM_005123 (RefSeq). Expression and purification of the FXR-LBD: An overnight preculture of a transformed E. coli strain was diluted 1:20 in LB-Ampicillin medium and grown at 30° C. to an optical density of OD600=0.4-0.6. Gene expression was then induced by addition of 0.5 mM IPTG. Cells were incubated an additional 6 h at 30° C., 180 rpm. Cells were collected by centrifugation (7000×g, 7 min, room temperature). Per liter of original cell culture, cells were resuspended in 10 mL lysis buffer (50 mM Glucose, 50 mM Tris pH 7.9, 1 mM EDTA and 4 mg/mL lysozyme) and left on ice for 30 min. Cells were then subjected to sonication and cell debris removed via centrifugation (22000×g, 30 min, 4° C.). Per 10 mL of supernatant 0.5 mL prewashed Glutathione 4B sepharose slurry (Qiagen) was added and the suspension kept slowly rotating for 1 h at 4° C. Glutathione 4B sepharose beads were pelleted by centrifugation (2000×g, 15 sec, 4° C.) and washed twice in wash buffer (25 mM Tris, 50 mM KCl, 4 mM MgCl2 and 1M NaCl). The pellet was resuspended in 3 mL elution buffer per liter of original culture (elution buffer: 20 mM Tris, 60 mM KCl, 5 mM MgCl2 and 80 mM glutathione added immediately prior to use as powder). The suspension was left rotating for 15 min at 4° C., the beads pelleted and eluted again with half the volume of elution buffer than the first time. The eluates were pooled and dialysed overnight in 20 mM Hepes buffer (pH 7.5) containing 60 mM KCl, 5 mM MgCl2 as well as 1 mM dithiothreitol and 10% (v/v) glycerol. The protein was analysed by SDS-Page.
The method measures the ability of putative ligands to modulate the interaction between the purified bacterial expressed FXR ligand binding domain (LBD) and a synthetic biotinylated peptide based on residues 676-700 of SRC-1 (LCD2, 676-700). […] The ligand binding domain (LBD) of FXR was expressed as fusion protein with GST in BL-21 cells using the vector pDEST15. Cells were lysed by sonication, and the fusion proteins purified over glutathione sepharose (Pharmacia) according to the manufacturers instructions. For screening of compounds for their influence on the FXR-peptide interaction, the Perkin Elmer LANCE technology was applied. This method relies on the binding dependent energy transfer from a donor to an acceptor fluorophor attached to the binding partner of interest. For ease of handling and reduction of background from compound fluorescence LANCE technology makes use of generic fluorophore labels and time resolved detection Assays were done in a final volume of 25 μL in a 384 well plate, in a Tris-based buffer (20 mM Tris-HCl pH 7.5; 60 mM KCl, 5 mM MgCl2; 35 ng/μL BSA), containing 20-60 ng/well recombinantly expressed FXR-LBD fused to GST, 200-600 nM N-terminally biotinylated peptide, representing SRC1 aminoacids 676-700, 200 ng/well Streptavidin-xIAPC conjugate (Prozyme) and 6-10 ng/well Eu W1024—antiGST (Perkin Elmer). DMSO content of the samples was kept at 1%. After generation of the assay mix and diluting the potentially FXR modulating ligands, the assay was equilibrated for one hour in the dark at room temperature in FIA-plates black 384 well (Greiner). The LANCE signal was detected by a Perkin Elmer VICTOR2V™ Multilabel Counter. The results were visualized by plotting the ratio between the emitted light at 665 and 615 nm.

[2] = biological target: T2, FXR ligand binding domain (Homo sapiens, UniProt Q96RI1); test: Mammalian One Hybrid (M1H) Gal4 reporter assay in HEK293 cells; assay type: cell-based; settings: potency range
T2 construct: expressed in transfected cells; host or cells: HEK293 cells (DSMZ), transient transfection of pCMV-BD-FXR-LBD
T2 sequence (Q96RI1 187-472 isoform Q96RI1-2): T1 sequence (Q96RI1 187-472 isoform Q96RI1-2)
Method: Determination of a ligand mediated Gal4 promoter driven transactivation to quantify ligand binding mediated activation of FXR was performed as follows: The cDNA part encoding the FXR ligand binding domain was cloned into vector pCMV-BD (Stratagene) as a fusion to the yeast GAL4 DNA binding domain under the control of the CMV promoter. The amino acid boundaries of the ligand binding domain were amino acids 187-472 of Database entry NM_005123 (RefSeq). The plasmid pFR-Luc (Stratagene) was used as the reporter plasmid, containing a synthetic promoter with five tandem repeats of the yeast GAL4 binding sites, driving the expression of the Photinus pyralis (American firefly) luciferase gene as the reporter gene. In order to improve experimental accuracy the plasmid pRL-CMV (Promega) was cotransfected. pRL-CMV contains the constitutive CMV promoter, controlling the expression of the Renilla reniformis luciferase. All Gal4 reporter gene assays were done in HEK293 cells (obtained from DSMZ, Braunschweig, Germany) grown in MEM with L-Glutamine and Earle's BSS supplemented with 10% fetal bovine serum, 0.1 mM nonessential amino acids, 1 mM sodium pyruvate, and 100 units Penicillin/[…] per mL at 37° C. in 5% CO2. Medium and supplements were obtained from Invitrogen. For the assay, […] were plated per well in 96 well plates in 100 μL per well MEM without Phenol Red and L-Glutamine and with Earle's BSS supplemented with 10% charcoal/dextran treated FBS (HyClone, South Logan, Utah), 0.1 mM nonessential amino acids, 2 mM glutamine, 1 mM sodium pyruvate, and 100 units Penicillin/[…] per mL, incubated at 37° C. in 5% CO2. The following day the cells were >90% confluence. Medium was removed and cells were transiently transfected using 20 μL per well of a OptiMEM—polyethylene-imine-based transfection-reagent (OptiMEM, Invitrogen; Polyethyleneimine, Aldrich Cat No. 40, 827-7) including the three plasmids described above. MEM with the same composition as used for plating cells was added 2-4 h after addition of transfection mixture. Then compound stocks, prediluted in MEM were added (final vehicle concentration not exceeding 0.1%). Cells were incubated for additional 16 h before firefly and renilla luciferase activities were measured sequentially in the same cell extract using a Dual-Light-Luciferase-Assay system (Dyer et al., Anal. Biochem. 2000, 282, 158-161). All experiments were done in triplicates.

[3] = UV stability, irradiation at 366 nm on a DMSO thin film, LCMS; assay type: physicochemical; settings: 366 nm emission, 250 μM in DMSO thin film, FIG. 3m
Method: A different, more rapid experimental setup was used to investigate a broader set of compounds in comparison to GW4064. The substances were dissolved in reagent grade DMSO (99.5%, Karl Roth) at a concentration of 250 μM. DMSO solution was spread over a silica glass slide to a depth of approximately 2 mm and irradiated using a UV lamp set to 366 nm emission (Benda Instruments, Wiesloch Germany) using an 8 W tube set approximately 2.5 cm from the target materials. The solution was sampled prior to irradiation (T=0 min) and at various intervals thereafter. Stocks and samples were maintained in foil wrapped tubes out of direct light. Samples were injected (2 μL) directly onto a LCMS System for analysis without any further preparation.

EC50 [1]	EC50 [2]	photostability compared to GW4064 [3]	Structure (SMILES)
0.01 to 0.1 µM	0.01 to 0.1 µM	higher photostability	O=C(O)c1ccc(C2CC2c2ccc(OCc3c(-c4c(Cl)cccc4Cl)noc3C3CC3)cc2Cl)cc1 (single isomer, unassigned; (-)) [Example 12c, (−)-4-(2-(2-chloro-4-((5-cyclopropyl-3-(2,6-dichlorophenyl)isoxazol-4-yl)methoxy)phenyl)cyclopropyl)benzoic acid]
> 0.1 µM	> 0.1 µM		O=C(O)c1ccc(C2CC2c2ccc(OCc3c(-c4c(Cl)cccc4Cl)noc3C3CC3)cc2Cl)cc1 (single isomer, unassigned; (+)) [Example 12b, (+)-4-(2-(2-chloro-4-((5-cyclopropyl-3-(2,6-dichlorophenyl)isoxazol-4-yl)methoxy)phenyl)cyclopropyl)benzoic acid]
> 0.1 µM	> 0.1 µM		O=C(O)c1cccc(C2CC2c2ccc(OCc3c(-c4c(Cl)cccc4Cl)noc3C3CC3)cc2Cl)c1 (single isomer, unassigned; (+)) [Example 5b, (+)-3-(2-(2-chloro-4-((5-cyclopropyl-3-(2,6-dichlorophenyl)isoxazol-4-yl)methoxy)phenyl)cyclopropyl)benzoic acid]

The remaining lines, values behind:

Structure (SMILES)	EC50 [1]	EC50 [2]	photostability compared to GW4064 [3]
Clc1cc(OCc2c(-c3c(Cl)cccc3Cl)noc2C2CC2)ccc1C1CC1c1ccc(-c2nnn[nH]2)cc1 (centres unmarked) [Example 16, 4-((4-(2-(4-(1H-tetrazol-5-yl)phenyl)cyclopropyl)-3-chlorophenoxy)methyl)-5-cyclopropyl-3-(2,6-dichlorophenyl)isoxazole]	> 0.1 µM	0.01 to 0.1 µM	higher photostability
CC(C)n1nc(C(=O)O)cc1C1CC1c1ccc(OCc2c(-c3c(Cl)cccc3Cl)noc2C2CC2)cc1Cl (centres unmarked) [Example 20, 5-(2-(2-chloro-4-((5-cyclopropyl-3-(2,6-dichlorophenyl)isoxazol-4-yl)methoxy)phenyl)cyclopropyl)-1-isopropyl-1H-pyrazole-3-carboxylic acid]	< 0.01 µM	< 0.01 µM	higher photostability
CS(=O)(=O)NC(=O)c1ccc(C2CC2c2ccc(OCc3c(-c4c(Cl)cccc4Cl)noc3C3CC3)cc2Cl)cc1 (centres unmarked) [Example 14, 4-(2-(2-chloro-4-((5-cyclopropyl-3-(2,6-dichlorophenyl)isoxazol-4-yl)methoxy)phenyl)cyclopropyl)-N-(methylsulfonyl)benzamide]	> 0.1 µM	0.01 to 0.1 µM	higher photostability
Cc1cc(C2CC2c2ccc(OCc3c(-c4c(Cl)cccc4Cl)noc3C3CC3)cc2Cl)cc(C)c1C(=O)O (centres unmarked) [Example 23, 4-(2-(2-chloro-4-((5-cyclopropyl-3-(2,6-dichlorophenyl)isoxazol-4-yl)methoxy)phenyl)cyclopropyl)-2,6-dimethylbenzoic acid]	0.01 to 0.1 µM	< 0.01 µM	
Clc1cc(OCc2c(-c3c(Cl)cccc3Cl)noc2C2CC2)ccc1C1CC1c1ccc(-c2nnn[nH]2)nc1 (centres unmarked) [Example 7, 4-((4-(2-(6-(1H-tetrazol-5-yl)pyridin-3-yl)cyclopropyl)-3-chlorophenoxy)methyl)-5-cyclopropyl-3-(2,6-dichlorophenyl)isoxazole]	0.01 to 0.1 µM	0.01 to 0.1 µM	
